Experimental data reported in patent US8883473B2, “Methods of treatment using allosteric processing inhibitors for matrix metalloproteinases” (Janssen Pharmaceutica N.V., priority 2011, dated 2014).

How the values were obtained:
[1] = system: female Lewis rats with SCW-induced arthritis; test: Efficacy in rats with SCW-induced arthritis (ankle thickness, clinical scores); format: in vivo, rat
Procedure: To induce arthritis, Female Lewis (LEW/N) rats, 5-6 weeks of age (80-100 g) were injected (i.p.) with SCW PG-PS as described above. Eighteen days later, arthritis was well established. Calipers were used to measure the width (anterior to posterior surface) of the left and right hind ankles of each rat. Each ankle was measured 3 times and averaged, and treatment groups were randomized based on ankle thickness (Table 6). Commencing on day 18, randomized groups of arthritic rats (n=5 rats/group) received vehicle or 5, 20, or 50 mg/kg Example 2 BID by oral gavage. Vehicle consisted of an aqueous mixture containing 2% (v:v) N-methylpyrrolidone, 5% (v:v) glycerine, and 20% (w:v) captisol. Treatment continued daily through the morning of day 26.
By day 18 mean ankle thickness was increased an average of >4.4 mm compared to disease free rats. Rats treated with vehicle alone continued to gradually develop a more severe arthritis based on ankle thickness measurements over the eight-day treatment period (Table 6). […] By day 26, the disease associated increase in ankle thickness had been reduced 27, 37, and 46 percent by 5, 20, and 50 mg/kg Example 2, respectively.
Hind paw inflammation clinical scores were assigned based on swelling and erythema.

[2] = molecular target: T1, MMP9 (Rattus norvegicus, UniProt P50282); test: Pro and active MMP9 in ankles of rats with SCW-induced arthritis by Western blot; format: in vivo; details: day 26, four hours after the AM dose, mAb-L51/82
T1 construct: Pro and active MMP9 were abundantly present in ankles of SCW-induced vehicle-treated rats; from tissue; host or cells: tibia-tarsus joints (ankles) of female Lewis rats
T1 sequence (P50282 108-708): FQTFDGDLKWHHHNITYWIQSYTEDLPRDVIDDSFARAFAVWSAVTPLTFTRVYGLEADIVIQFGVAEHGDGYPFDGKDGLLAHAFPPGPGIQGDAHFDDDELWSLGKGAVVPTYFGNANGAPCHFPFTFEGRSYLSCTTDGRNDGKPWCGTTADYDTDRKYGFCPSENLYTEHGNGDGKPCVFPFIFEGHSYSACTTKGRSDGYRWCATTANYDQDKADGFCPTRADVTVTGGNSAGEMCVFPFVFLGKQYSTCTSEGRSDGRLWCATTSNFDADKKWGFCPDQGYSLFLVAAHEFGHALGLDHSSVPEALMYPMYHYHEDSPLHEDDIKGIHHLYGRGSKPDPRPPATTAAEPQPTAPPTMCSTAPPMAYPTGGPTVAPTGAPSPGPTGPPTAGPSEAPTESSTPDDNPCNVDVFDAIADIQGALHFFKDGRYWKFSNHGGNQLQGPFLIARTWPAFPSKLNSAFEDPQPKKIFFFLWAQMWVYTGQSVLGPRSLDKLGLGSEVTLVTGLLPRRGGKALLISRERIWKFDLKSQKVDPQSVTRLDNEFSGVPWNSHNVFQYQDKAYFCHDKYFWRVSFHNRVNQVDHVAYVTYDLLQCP
Procedure: Hind-limbs were skinned, severed just above the tibia-tarsus joint and below the metatarsals, and the tibia-tarsus joints (ankles) were weighed, snap frozen and pulverized on dry ice using a hammer and anvil. The pulverized tissue was suspended in 3 volumes (w:v) of ice-cold homogenization buffer containing 50 mM Tris pH 7.5, 150 mM NaCl, 5 mM EDTA, 1% Triton X100, 0.05% Brij 30, 10% dimethylsulfoxide and Complete EDTA-free Protease Inhibitor Cocktail (Roche Diagnostics). The suspended tissue was homogenized sequentially with a Kinematica AG Polytron and a Dounce homogenizer. Homogenates were centrifuged at 16,000×g for 10 min at 4° C. and the soluble fractions were saved. Dimethylsulfoxide was removed from a portion of each soluble fraction using PD MiniTrap™ G-25 desalting columns (GE Healthcare). Homogenates (0.25 mL), free of DMSO, were diluted with an equal volume of binding buffer (i.e., homogenization buffer without dimethylsufoxide) and adjusted to contain 50 μL of a 50% slurry of gelatin-conjugated sepharose. Following 2 hours of rotation at 4° C. the beads were washed twice in binding buffer and eluted in 100 μL 2×-reducing Laemmli buffer with heating to 95° C. for 5 minutes. […]

abundance of proMMP9 in ankles [2]: did not reduce
SMILES: Cc1nc(C)c(-c2csc(Nc3cc(S(N)(=O)=O)ccc3OC(C)C)n2)s1 [Example 2, 3-(2′,4′-Dimethyl-[4,5′]bithiazolyl-2-ylamino)-4-isopropoxy-benzenesulfonamide.HBr]
ankle thickness measurements ([1]; 5, 20, 50 mg/kg BID oral gavage Day 18-26): dose-dependent decrease | clinical score measurements ([1]; 5, 20, 50 mg/kg BID, significant effects emerging at the 20 mg/kg dose): dose dependent decrease
